Starred links: 1 amine or outer side, 2 acyl side, 3 side chain; linkers in the order of their positions; H or OH if unused. Positions of bridges follow the written chain, without caps; N, C: chain ends. Non-standard residues stand in square brackets, D forms with d. Residues, ends and D or L forms follow the SMILES beside them. Groups on a side chain read outwards from the residue. *: point of attachment. Ala(1-CH2CO2H-4-piperidyl) = N[C@@H](CC1CCN(CC(=O)O)CC1)C(=O)O; Ala(piperidin-4-yl) = O=C([C@H](CC1CCN([*:3])CC1)N[*:1])[*:2]; DOTA = O=C(O)CN1CCN(CC(=O)O)CCN(CC(=O)*)CCN(CC(=O)O)CC1; Trp(4-OMe) = COc1cccc2[nH]cc(C[C@H](N)C(=O)O)c12; Trp(5-Cl) = N[C@@H](Cc1c[nH]c2ccc(Cl)cc12)C(=O)O; Trp(5-F) = N[C@@H](Cc1c[nH]c2ccc(F)cc12)C(=O)O; Trp(1-Me) = Cn1cc(C[C@H](N)C(=O)O)c2ccccc21; 1Nal = N[C@@H](Cc1cccc2ccccc12)C(=O)O; Ala(4-THP) = N[C@@H](CC1CCOCC1)C(=O)O; Val(3-OH) = CC(C)(O)[C@H](N)C(=O)O; 4Pal = N[C@@H](Cc1ccncc1)C(=O)O; Chg = N[C@H](C(=O)O)C1CCCCC1; Tle = CC(C)(C)[C@H](N)C(=O)O; hLeu = CC(C)CC[C@H](N)C(=O)O; Nle = CCCC[C@H](N)C(=O)O; Nva = CCC[C@H](N)C(=O)O; PEG2 = NCCOCCOCCC(=O)O; CH2 = C([*:1])[*:2]
target: T1, human 4lg B7-H3 (Homo sapiens, UniProt Q5ZPR3); assay: Affinity determination by surface plasmon resonance (SPR) to 4Ig B7-H3; settings: SPR KD—25° C., 4Ig B7-H3; 25° C. flow cell temperature
T1 sequence (Q5ZPR3 29-534): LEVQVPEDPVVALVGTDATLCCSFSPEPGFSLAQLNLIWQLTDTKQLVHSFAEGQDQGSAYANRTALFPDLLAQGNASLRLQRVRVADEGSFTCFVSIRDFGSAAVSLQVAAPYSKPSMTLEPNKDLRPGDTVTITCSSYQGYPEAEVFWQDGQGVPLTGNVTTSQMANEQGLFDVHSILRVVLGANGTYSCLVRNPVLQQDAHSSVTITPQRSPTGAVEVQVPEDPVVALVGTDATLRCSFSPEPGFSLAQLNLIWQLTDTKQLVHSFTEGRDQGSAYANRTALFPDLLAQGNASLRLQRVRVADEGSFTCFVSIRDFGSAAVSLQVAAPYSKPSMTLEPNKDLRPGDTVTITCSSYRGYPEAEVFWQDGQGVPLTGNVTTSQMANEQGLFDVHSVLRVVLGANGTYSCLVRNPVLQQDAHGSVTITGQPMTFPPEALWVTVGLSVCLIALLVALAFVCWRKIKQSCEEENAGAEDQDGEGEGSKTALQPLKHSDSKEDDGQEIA

| Kd [nM] | SMILES |
| --- | --- |
| 1 to 10 | CCCC[C@H](NC(C)=O)C(=O)N[C@@H](Cc1ccc(O)cc1)C(=O)N[C@H]1CSSC[C@@H](C(=O)N[C@@H](Cc2c[nH]c3ccc(F)cc23)C(=O)N[C@@H](Cc2ccccc2)C(=O)N[C@H](C(N)=O)[C@@H](C)O)NC(=O)[C@H](Cc2ccc(O)cc2)NC(=O)[C@H](C(C)C)NC(=O)[C@H](CC(=O)O)NC(=O)[C@H](Cc2ccc(O)cc2)NC(=O)[C@H](CCCCN)NC(=O)CNC(=O)[C@H](C(C)C)NC1=O [compound 59, Ac-Nle-Y-C-V-G-K-Y-D-V-Y-C-5FW-F-Thr-CONH2] (Ac-[Nle]YCVGKYDVYC[Trp(5-F)]FT-NH2; disulfide 3-11) |
| 1 to 10 | CC(=O)N[C@@H](CCC(C)C)C(=O)N[C@@H](Cc1ccc(O)cc1)C(=O)N[C@H]1CSSC[C@@H](C(=O)N[C@@H](Cc2c[nH]c3ccc(Cl)cc23)C(=O)N[C@@H](Cc2ccccc2)C(=O)N[C@H](C(=O)N[C@H](CCCCNC(=O)CN2CCN(CC(=O)O)CCN(CC(=O)O)CCN(CC(=O)O)CC2)C(N)=O)[C@@H](C)O)NC(=O)[C@H](Cc2ccc(O)cc2)NC(=O)[C@H](C(C)C)NC(=O)[C@H](CC(=O)O)NC(=O)[C@H](Cc2ccc(O)cc2)NC(=O)[C@H](CCCCN)NC(=O)CNC(=O)[C@H](C(C)(C)C)NC1=O [compound 235, Ac-hLeu-Y-C-Tbg-G-K-Y-D-V-Y-C-5ClTrp-F-Thr-dLys(DOTA)-CONH2] (Ac-[hLeu]YC[Tle]GKYDVYC[Trp(5-Cl)]FT[dK](DOTA)-NH2; disulfide 3-11) |
| 10 to 100 | CCCC[C@H](NC(C)=O)C(=O)N[C@@H](Cc1ccc(O)cc1)C(=O)N[C@H]1CSSC[C@@H](C(=O)N[C@@H](Cc2c[nH]c3ccccc23)C(=O)N[C@@H](Cc2ccccc2)C(=O)N[C@H](C(=O)N[C@H](CCCCNC(=O)CN2CCN(CC(=O)O)CCN(CC(=O)O)CCN(CC(=O)O)CC2)C(N)=O)[C@@H](C)O)NC(=O)[C@H](Cc2ccc(O)cc2)NC(=O)[C@H](C(C)C)NC(=O)[C@H](CC(=O)O)NC(=O)[C@H](Cc2ccc(O)cc2)NC(=O)[C@H](CCCCN)NC(=O)CNC(=O)[C@H](C2CCCCC2)NC1=O [compound 54, Ac-Nle-Y-C-ChG-G-K-Y-D-V-Y-C-W-F-Thr-dLys(DOTA)-CONH2] (Ac-[Nle]YC[Chg]GKYDVYCWFT[dK](DOTA)-NH2; disulfide 3-11) |
| 10 to 100 | COc1ccc(C[C@H](NC(=O)[C@H](CCC(C)C)NC(C)=O)C(=O)N[C@H]2CSSC[C@@H](C(=O)N[C@@H](Cc3c[nH]c4ccc(F)cc34)C(=O)N[C@@H](Cc3ccccc3)C(=O)N[C@H](C(=O)N[C@H](CCCCNC(=O)CN3CCN(CC(=O)O)CCN(CC(=O)O)CCN(CC(=O)O)CC3)C(N)=O)[C@@H](C)O)NC(=O)[C@H](Cc3ccc(O)cc3)NC(=O)[C@H](C(C)C)NC(=O)[C@H](CC(=O)O)NC(=O)[C@H](Cc3ccc(O)cc3)NC(=O)[C@H](CCCCN)NC(=O)CNC(=O)[C@H](C(C)C)NC2=O)cc1 [compound 193, Ac-hLeu-OMeTyr-C-V-G-K-Y-D-V-Y-C-5FW-F-Thr-dLys(DOTA)-CONH2] (Ac-[hLeu]Y(Me)CVGKYDVYC[Trp(5-F)]FT[dK](DOTA)-NH2; disulfide 3-11) |
| 1 to 10 | CCC[C@@H]1NC(=O)[C@@H](NC(=O)[C@H](Cc2ccc(O)cc2)NC(=O)[C@H](CCC(C)C)NC(C)=O)CSSC[C@@H](C(=O)N[C@@H](Cc2c[nH]c3ccc(F)cc23)C(=O)N[C@@H](Cc2ccccc2)C(=O)N[C@H](C(=O)N[C@H](CCCCNC(=O)CN2CCN(CC(=O)O)CCN(CC(=O)O)CCN(CC(=O)O)CC2)C(N)=O)[C@@H](C)O)NC(=O)[C@H](Cc2ccc(O)cc2)NC(=O)[C@H](C(C)C)NC(=O)[C@H](CC(=O)O)NC(=O)[C@H](Cc2ccc(O)cc2)NC(=O)[C@H](CCCCN)NC(=O)CNC1=O [compound 184, Ac-hLeu-Y-C-Nva-G-K-Y-D-V-Y-C-5FW-F-Thr-dLys(DOTA)-CONH2] (Ac-[hLeu]YC[Nva]GKYDVYC[Trp(5-F)]FT[dK](DOTA)-NH2; disulfide 3-11) |
| 100 to 300 | CC(=O)N[C@@H](CCC(C)C)C(=O)N[C@@H](Cc1ccc(O)cc1)C(=O)N[C@H]1CSCSC[C@@H](C(=O)N[C@@H](Cc2cccc3ccccc23)C(=O)N[C@@H](Cc2ccccc2)C(=O)N2CCC[C@H]2C(N)=O)NC(=O)[C@H](Cc2ccc(O)cc2)NC(=O)[C@H](C(C)C)NC(=O)[C@H](CC(=O)O)NC(=O)[C@H](Cc2ccncc2)NC(=O)[C@H](CCCCNC(=O)CN2CCN(CC(=O)O)CCN(CC(=O)O)CCN(CC(=O)O)CC2)NC(=O)CNC(=O)[C@H](C(C)(C)C)NC1=O [compound 330, Ac-hLeu-Y-C(CH2)-Tbg-G-Lys(DOTA)-4PyA-D-V-Y-C-1Nal-F-Pro-CONH2] (Ac-[hLeu]YC[Tle]GK(DOTA)[4Pal]DVYC[1Nal]FP-NH2; linker 3-11 via CH2) |

same assay, conditions: SPR KD—37° C., 4Ig B7-H3; 37° C. flow cell temperature

| Kd [nM] | SMILES |
| --- | --- |
| 1 to 10 | COc1cccc2[nH]cc(C[C@H](NC(=O)[C@@H]3CSSC[C@H](NC(=O)[C@H](Cc4ccc(O)cc4)NC(=O)[C@H](CCC(C)C)NC(C)=O)C(=O)N[C@@H](C(C)(C)C)C(=O)NCC(=O)N[C@@H](CC4CCNCC4)C(=O)N[C@@H](CC4CCOCC4)C(=O)N[C@@H](CC(=O)O)C(=O)N[C@@H](C(C)C)C(=O)N[C@@H](Cc4ccc(O)cc4)C(=O)N3)C(=O)N[C@@H](Cc3ccccc3)C(=O)N[C@H](C(=O)N[C@H](CCCCNC(=O)CN3CCN(CC(=O)O)CCN(CC(=O)O)CCN(CC(=O)O)CC3)C(=O)O)C(C)(C)O)c12 [compound 493, Ac-hLeu-Y-C-Tbg-G-PipAla-ThpA-D-V-Y-C-4MeOW-F-hydroxyVal-dLys(DOTA)-COOH] (Ac-[hLeu]YC[Tle]G[Ala(piperidin-4-yl)][Ala(4-THP)]DVYC[Trp(4-OMe)]F[Val(3-OH)][dK](DOTA)-OH; disulfide 3-11) |
| 1 to 10 | CC(=O)N[C@@H](CCC(C)C)C(=O)N[C@@H](Cc1ccc(O)cc1)C(=O)N[C@H]1CSSC[C@@H](C(=O)N[C@@H](Cc2c[nH]c3ccc(F)cc23)C(=O)N[C@@H](Cc2ccccc2)C(=O)N[C@H](C(=O)N[C@H](CO)C(N)=O)C(C)(C)O)NC(=O)[C@H](Cc2ccc(O)cc2)NC(=O)[C@H](C(C)C)NC(=O)[C@H](CC(=O)O)NC(=O)[C@H](CC2CCN(CC(=O)O)CC2)NC(=O)[C@H](CCCCNC(=O)CN2CCN(CC(=O)O)CCN(CC(=O)O)CCN(CC(=O)O)CC2)NC(=O)CNC(=O)[C@H](C(C)(C)C)NC1=O [compound 420, Ac-hLeu-Y-C-Tbg-G-Lys(DOTA)-Pip(CH2COOH)Ala-D-V-Y-C-5FW-F-hydroxyVal-dSer-CONH2] (Ac-[hLeu]YC[Tle]GK(DOTA)[Ala(1-CH2CO2H-4-piperidyl)]DVYC[Trp(5-F)]F[Val(3-OH)][dS]-NH2; disulfide 3-11) |
| 1 to 10 | CC(=O)N[C@@H](CCC(C)C)C(=O)N[C@@H](Cc1ccc(O)cc1)C(=O)N[C@H]1CSSC[C@@H](C(=O)N[C@@H](Cc2c[nH]c3ccc(F)cc23)C(=O)N[C@@H](Cc2ccccc2)C(=O)N[C@H](C(=O)N[C@H](CCC(=O)O)C(N)=O)C(C)(C)O)NC(=O)[C@H](Cc2ccc(O)cc2)NC(=O)[C@H](C(C)C)NC(=O)[C@H](CC(=O)O)NC(=O)[C@H](CC2CCOCC2)NC(=O)[C@H](CC2CCN(C(=O)CCOCCOCCNC(=O)CN3CCN(CC(=O)O)CCN(CC(=O)O)CCN(CC(=O)O)CC3)CC2)NC(=O)CNC(=O)[C@H](C(C)(C)C)NC1=O [compound 474, Ac-hLeu-Y-C-Tbg-G-Pip(PEG2-DOTA)Ala-ThpA-D-V-Y-C-5FW-F-hydroxyVal-dGlu-CONH2] (Ac-[hLeu]YC[Tle]G[Ala(piperidin-4-yl)]([PEG2-DOTA])[Ala(4-THP)]DVYC[Trp(5-F)]F[Val(3-OH)][dE]-NH2; disulfide 3-11) |
| < 1 | CC(=O)N[C@@H](CCC(C)C)C(=O)N[C@@H](Cc1ccc(O)cc1)C(=O)N[C@H]1CSSC[C@@H](C(=O)N[C@@H](Cc2cn(C)c3ccccc23)C(=O)N[C@@H](Cc2ccccc2)C(=O)N[C@H](C(=O)N[C@H](CCCCNC(=O)CN2CCN(CC(=O)O)CCN(CC(=O)O)CCN(CC(=O)O)CC2)C(=O)O)C(C)(C)O)NC(=O)[C@H](Cc2ccc(O)cc2)NC(=O)[C@H](C(C)C)NC(=O)[C@H](CC(=O)O)NC(=O)[C@H](CC2CCOCC2)NC(=O)[C@H](CC2CCNCC2)NC(=O)CNC(=O)[C@H](C(C)(C)C)NC1=O [compound 462, Ac-hLeu-Y-C-Tbg-G-PipAla-ThpA-D-V-Y-C-Trp(Me)-F-hydroxyVal-dLys(DOTA)-COOH] (Ac-[hLeu]YC[Tle]G[Ala(piperidin-4-yl)][Ala(4-THP)]DVYC[Trp(1-Me)]F[Val(3-OH)][dK](DOTA)-OH; disulfide 3-11) |

same assay, conditions: read-out: SPR KD—37° C.; 4Ig B7-H3; 37° C. flow cell temperature

| Kd [nM] | SMILES |
| --- | --- |
| < 1 | CC(=O)N[C@@H](CCC(C)C)C(=O)N[C@@H](Cc1ccc(O)cc1)C(=O)N[C@H]1CSSC[C@@H](C(=O)N[C@@H](Cc2c[nH]c3ccc(F)cc23)C(=O)N[C@@H](Cc2ccccc2)C(=O)N[C@H](C(=O)N[C@H](CCCCNC(=O)CN2CCN(CC(=O)O)CCN(CC(=O)O)CCN(CC(=O)O)CC2)C(=O)O)C(C)(C)O)NC(=O)[C@H](Cc2ccc(O)cc2)NC(=O)[C@H](C(C)C)NC(=O)[C@H](CC(=O)O)NC(=O)[C@H](CC2CCC(O)CC2)NC(=O)[C@H](CC2CCNCC2)NC(=O)CNC(=O)[C@H](C(C)(C)C)NC1=O (single isomer, unassigned) [compound 480, Ac-hLeu-Y-C-Tbg-G-PipAla-4OHCha(pk2)-D-V-Y-C-5FW-F-hydroxyVal-dLys(DOTA)-COOH] |

Source: patent US20250296959A1, “B7-H3 TARGETING PEPTIDES AND CONSTRUCTS THEREOF” (Mariana Oncology Inc., priority 2024, published 2025)
